According to US20130216631A1, “TARGETED PERFORMANCE OF HYPOHALITE COMPOSITIONS THEREOF” (The Clorox Company, priority 2012, published 2013):

Experiment: Percentage of initial hypochlorite remaining over time after mixing oxidant and reductant
Format: physicochemical
Details: any pH below 12
Excerpt: The amount of available halogen oxidant in the composition may be determined by placing samples of the composition into about 50 milliliters of distilled water, followed by addition of about 10 milliliters of a 10 wt % solution of potassium iodide and addition of about 10 milliliters of a 10 volume % solution of sulfuric acid, the resulting mixture being well stirred. The resulting yellow to brown solution, whose color is the result of oxidation of […] (I^−) to molecular iodine (I2), is then volumetrically titrated to an essentially colorless endpoint by addition of standardized 0.1 Molar sodium thiosulfate (Na2S2O3) titrant. […] Stability results are then expressed by repeated assays over time using identically prepared samples resulting from the same composition, normalized to 100 percent representative of the starting available chlorine measured initially.
Alternatively, at lower concentrations of hypochlorite, generally below about 2,000 ppm or 0.2 wt %, spectroscopic measurement of the absorption of aqueous solutions may be used to monitor the concentration, and resulting changes, of the hypochlorous acid species in solution. […] By use of controls, the relative level of hypochlorite can then be monitored and calculated by measuring absorbance of solutions by means of a suitable instrument, such as a spectrophotometer. […]

reaction of reductant with hypochlorite (quench rate): reacts almost instantly
SMILES: O=C(O)CN(CCN(CC(=O)O)CC(=O)O)CC(=O)O [EDTA, ethylene diamine tetra-acetic acid]
